# Data taken from paper PMC10495264 (Nature Cell Biology, 2023).
# Several values for one entry are separate records, joined by “and”; a condition that tells them apart may be missing. Equal values may be shown once.
# Biological target: T1, TORC1 (Saccharomyces cerevisiae, UniProt P35169)
# T1 construct: made in house; host or cells: S. cerevisiae strain NIC005 ([RL170-2c] LEU2:GFP-TOR1)
# Assay: MST binding affinity assays with fluorescent TORC1 (GFP–Tor1)
# Protocol: The MST experiments were performed using a Monolith NT.115 (Nanotemper Technologies). Purification of TORC1 containing the N-terminally GFP-tagged Tor1 subunit was carried out as described previously. For the protein–protein interaction experiments, GFP–Tor1-containing TORC1 (7.5 nM) was mixed with a series of twofold dilutions (a total of 16 samples) of Acc1 (highest concentration, 80 nM) or Fas1 (highest concentration, 20 nM) purified from yeast through TAP-tag immuno-enrichment with rabbit IgG-coated magnetic beads and subsequent TEV cleavage in elution buffer (50 mM HEPES NaOH pH 7.5 and 150 mM NaCl) for 1 h at 18 °C. The samples were loaded into Monolith NT.115 capillaries and MST measurements were performed using 80% laser power and medium MST power setting at 30 °C. For the small molecule–protein interaction experiments, GFP–Tor1-containing TORC1 (7.5 nM) was mixed with a series of twofold dilutions (a total of 16 samples) of Mal-CoA (M4263, Sigma-Aldrich; highest concentration, 5 mM) dissolved in 50 mM HEPES pH 7.5. The samples were loaded into Monolith NT.115 capillaries and MST measurements were performed using 80% laser power and medium MST power setting at 30 °C. The experiments were performed in triplicate and data were fitted using the Kd model of the MO.Affinity Analysis software (Nanotemper Technologies). The signal-to-noise ratio represents the response amplitude divided by the noise of the measurement. The Kd value was obtained by plotting the bound fraction against the log-transformed ligand concentration.
# T1 sequence (P35169 whole entry): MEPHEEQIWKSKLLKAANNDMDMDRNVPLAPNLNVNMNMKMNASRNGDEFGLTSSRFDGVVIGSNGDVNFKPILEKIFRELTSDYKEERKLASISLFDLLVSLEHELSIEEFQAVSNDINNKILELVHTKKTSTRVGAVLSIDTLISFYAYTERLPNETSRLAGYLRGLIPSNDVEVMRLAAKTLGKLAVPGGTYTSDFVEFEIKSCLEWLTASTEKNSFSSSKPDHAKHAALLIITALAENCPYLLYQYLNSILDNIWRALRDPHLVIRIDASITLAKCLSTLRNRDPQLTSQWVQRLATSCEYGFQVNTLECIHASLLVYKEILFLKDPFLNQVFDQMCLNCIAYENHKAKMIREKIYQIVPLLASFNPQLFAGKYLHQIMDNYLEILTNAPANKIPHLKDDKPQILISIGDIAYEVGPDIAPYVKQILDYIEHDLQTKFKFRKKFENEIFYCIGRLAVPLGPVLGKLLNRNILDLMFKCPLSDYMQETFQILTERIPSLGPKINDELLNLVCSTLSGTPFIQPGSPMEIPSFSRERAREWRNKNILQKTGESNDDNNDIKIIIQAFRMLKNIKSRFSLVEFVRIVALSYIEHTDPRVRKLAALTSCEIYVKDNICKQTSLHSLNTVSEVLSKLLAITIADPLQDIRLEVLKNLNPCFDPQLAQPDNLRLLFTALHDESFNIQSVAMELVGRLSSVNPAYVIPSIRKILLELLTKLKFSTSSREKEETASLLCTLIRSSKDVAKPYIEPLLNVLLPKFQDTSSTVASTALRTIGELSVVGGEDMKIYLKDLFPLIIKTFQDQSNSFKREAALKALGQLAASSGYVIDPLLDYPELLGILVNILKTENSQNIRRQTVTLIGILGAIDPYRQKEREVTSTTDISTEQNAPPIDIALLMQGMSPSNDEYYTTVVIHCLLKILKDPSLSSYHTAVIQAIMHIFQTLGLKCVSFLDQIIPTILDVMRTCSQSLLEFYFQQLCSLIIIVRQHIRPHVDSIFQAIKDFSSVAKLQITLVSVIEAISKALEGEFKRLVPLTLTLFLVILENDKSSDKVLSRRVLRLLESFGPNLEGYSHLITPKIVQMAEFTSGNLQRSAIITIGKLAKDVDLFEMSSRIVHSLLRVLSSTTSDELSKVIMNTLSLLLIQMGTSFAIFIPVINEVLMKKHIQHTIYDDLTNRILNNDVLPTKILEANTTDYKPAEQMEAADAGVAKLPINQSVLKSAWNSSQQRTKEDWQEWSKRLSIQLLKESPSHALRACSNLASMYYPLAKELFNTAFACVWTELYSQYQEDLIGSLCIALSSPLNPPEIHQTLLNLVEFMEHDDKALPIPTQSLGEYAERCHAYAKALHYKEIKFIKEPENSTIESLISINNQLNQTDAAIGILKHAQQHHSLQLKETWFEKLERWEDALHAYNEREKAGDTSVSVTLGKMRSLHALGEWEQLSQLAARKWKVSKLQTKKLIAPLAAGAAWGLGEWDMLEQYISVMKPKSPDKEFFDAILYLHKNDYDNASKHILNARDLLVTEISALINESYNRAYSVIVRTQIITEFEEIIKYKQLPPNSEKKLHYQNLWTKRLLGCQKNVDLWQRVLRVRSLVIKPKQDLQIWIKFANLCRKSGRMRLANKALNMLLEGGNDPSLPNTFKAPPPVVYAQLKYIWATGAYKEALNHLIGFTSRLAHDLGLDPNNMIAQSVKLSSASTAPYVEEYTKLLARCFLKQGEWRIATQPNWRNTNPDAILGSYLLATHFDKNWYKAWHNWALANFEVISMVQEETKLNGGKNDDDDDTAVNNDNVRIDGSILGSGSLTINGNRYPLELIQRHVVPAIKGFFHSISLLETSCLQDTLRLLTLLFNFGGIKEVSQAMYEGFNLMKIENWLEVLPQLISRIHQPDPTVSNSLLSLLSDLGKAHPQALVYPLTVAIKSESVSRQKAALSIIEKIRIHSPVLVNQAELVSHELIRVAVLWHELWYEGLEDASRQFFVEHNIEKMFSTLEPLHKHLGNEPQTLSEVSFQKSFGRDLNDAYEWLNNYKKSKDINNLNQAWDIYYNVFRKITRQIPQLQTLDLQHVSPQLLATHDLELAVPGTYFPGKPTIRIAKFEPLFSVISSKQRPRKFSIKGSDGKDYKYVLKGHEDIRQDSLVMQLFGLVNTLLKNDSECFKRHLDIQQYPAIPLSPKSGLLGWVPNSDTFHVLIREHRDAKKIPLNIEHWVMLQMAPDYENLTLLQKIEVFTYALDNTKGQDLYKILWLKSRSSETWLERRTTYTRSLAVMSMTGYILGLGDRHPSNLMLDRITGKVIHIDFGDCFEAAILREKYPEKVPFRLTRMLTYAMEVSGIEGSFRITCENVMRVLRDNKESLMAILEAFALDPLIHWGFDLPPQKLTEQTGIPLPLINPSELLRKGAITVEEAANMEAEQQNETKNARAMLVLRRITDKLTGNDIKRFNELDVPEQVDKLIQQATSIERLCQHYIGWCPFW
# T1 sequence (Q08921 whole entry partner): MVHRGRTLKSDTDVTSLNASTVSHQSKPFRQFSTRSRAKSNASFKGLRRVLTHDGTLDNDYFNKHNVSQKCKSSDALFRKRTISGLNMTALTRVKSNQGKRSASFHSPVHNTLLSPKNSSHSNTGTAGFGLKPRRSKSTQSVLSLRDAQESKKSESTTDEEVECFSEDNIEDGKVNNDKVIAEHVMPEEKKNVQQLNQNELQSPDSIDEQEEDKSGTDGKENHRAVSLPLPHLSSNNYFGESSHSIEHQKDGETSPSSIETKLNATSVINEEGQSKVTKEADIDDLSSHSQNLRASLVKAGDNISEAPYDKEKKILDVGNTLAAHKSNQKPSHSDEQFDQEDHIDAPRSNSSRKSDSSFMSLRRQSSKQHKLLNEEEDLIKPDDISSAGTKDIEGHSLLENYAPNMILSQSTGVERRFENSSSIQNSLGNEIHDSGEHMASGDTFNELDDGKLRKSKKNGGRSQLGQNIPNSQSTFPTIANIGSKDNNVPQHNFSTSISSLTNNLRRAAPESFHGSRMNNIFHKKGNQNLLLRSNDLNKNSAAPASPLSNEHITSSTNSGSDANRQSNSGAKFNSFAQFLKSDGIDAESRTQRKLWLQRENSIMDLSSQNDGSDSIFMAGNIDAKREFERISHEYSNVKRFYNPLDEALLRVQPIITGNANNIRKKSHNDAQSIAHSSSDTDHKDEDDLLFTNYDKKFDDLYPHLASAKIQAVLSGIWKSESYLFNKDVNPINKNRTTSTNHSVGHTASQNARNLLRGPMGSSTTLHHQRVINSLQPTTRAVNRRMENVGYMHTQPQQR
# T1 sequence (P38873 whole entry partner): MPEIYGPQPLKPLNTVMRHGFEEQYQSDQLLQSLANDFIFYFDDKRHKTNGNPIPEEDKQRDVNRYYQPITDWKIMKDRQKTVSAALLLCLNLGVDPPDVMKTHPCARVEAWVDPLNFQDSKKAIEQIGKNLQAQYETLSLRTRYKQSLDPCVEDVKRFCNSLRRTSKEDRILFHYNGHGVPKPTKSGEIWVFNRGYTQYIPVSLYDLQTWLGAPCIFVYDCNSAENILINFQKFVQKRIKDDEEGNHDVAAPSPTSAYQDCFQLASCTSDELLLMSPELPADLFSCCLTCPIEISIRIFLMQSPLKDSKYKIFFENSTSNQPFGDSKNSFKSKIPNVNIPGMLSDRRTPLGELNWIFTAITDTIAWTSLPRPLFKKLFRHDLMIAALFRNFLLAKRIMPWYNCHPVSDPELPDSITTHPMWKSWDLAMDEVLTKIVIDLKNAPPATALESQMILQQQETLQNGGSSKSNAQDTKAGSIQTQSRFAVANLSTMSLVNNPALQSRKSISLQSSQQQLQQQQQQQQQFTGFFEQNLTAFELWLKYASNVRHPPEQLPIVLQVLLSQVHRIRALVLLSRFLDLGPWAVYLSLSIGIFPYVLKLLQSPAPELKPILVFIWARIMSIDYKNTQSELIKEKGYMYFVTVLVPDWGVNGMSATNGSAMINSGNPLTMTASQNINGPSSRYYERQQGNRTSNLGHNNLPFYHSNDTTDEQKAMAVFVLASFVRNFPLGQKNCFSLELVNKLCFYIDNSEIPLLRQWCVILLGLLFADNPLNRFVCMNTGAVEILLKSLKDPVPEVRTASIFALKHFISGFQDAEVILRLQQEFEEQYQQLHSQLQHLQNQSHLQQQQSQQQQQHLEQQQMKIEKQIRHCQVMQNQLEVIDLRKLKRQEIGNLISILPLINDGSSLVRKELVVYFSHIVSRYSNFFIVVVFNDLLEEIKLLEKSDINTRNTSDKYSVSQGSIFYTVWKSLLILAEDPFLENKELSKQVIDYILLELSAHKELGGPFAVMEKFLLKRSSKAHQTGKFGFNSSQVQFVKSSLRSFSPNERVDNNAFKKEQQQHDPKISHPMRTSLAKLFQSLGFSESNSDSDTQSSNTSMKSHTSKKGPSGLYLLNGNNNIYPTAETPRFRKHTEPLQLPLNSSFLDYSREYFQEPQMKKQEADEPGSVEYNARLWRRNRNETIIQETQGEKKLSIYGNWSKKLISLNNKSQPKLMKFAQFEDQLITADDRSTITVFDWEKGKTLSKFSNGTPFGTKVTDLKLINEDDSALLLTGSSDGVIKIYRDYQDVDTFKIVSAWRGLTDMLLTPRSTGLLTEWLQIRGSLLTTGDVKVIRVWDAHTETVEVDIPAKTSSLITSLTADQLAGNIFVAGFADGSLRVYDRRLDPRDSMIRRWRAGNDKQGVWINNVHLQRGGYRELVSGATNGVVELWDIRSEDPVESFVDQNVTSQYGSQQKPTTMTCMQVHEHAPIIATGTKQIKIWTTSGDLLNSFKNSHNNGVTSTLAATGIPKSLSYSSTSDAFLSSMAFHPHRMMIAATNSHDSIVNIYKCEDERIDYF
# T1 sequence (P41318 whole entry partner): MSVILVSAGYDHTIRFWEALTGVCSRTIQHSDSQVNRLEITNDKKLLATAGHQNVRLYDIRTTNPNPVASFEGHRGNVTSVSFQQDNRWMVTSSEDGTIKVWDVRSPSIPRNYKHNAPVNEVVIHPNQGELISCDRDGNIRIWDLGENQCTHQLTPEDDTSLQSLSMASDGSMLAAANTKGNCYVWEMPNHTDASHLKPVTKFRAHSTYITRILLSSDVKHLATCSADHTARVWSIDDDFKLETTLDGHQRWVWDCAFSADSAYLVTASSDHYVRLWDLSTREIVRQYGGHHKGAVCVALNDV
compound,measurement,setting,value
"CC(C)(COP(=O)(O)OP(=O)(O)OCC1OC(n2cnc3c(N)ncnc32)C(O)C1OP(=O)(O)O)C(O)C(=O)NCCC(=O)NCCSC(=O)CC(=O)O (stereo not drawn) [Mal-CoA, malonyl-CoA]",Fraction bound transformed,Mal-CoA 1.52588e-7 M,-0.1669
same,Mean Fnorm,Mal-CoA 1.52588e-7 M,842.758 ‰
same,Fnorm,"Mal-CoA 1.52588e-7 M, Replicates 1-3 (ED Fig. 10a)",842.278 ‰ and 840.902 ‰ and 845.093 ‰
same,Fraction bound transformed,Mal-CoA 3.05176e-7 M,0.1808
same,Mean Fnorm,Mal-CoA 3.05176e-7 M,838.674 ‰
same,Fnorm,"Mal-CoA 3.05176e-7 M, Replicates 1-2 (ED Fig. 10a)",836.322 ‰ and 841.026 ‰
same,Fraction bound transformed,Mal-CoA 6.10352e-7 M,-0.2372
same,Mean Fnorm,Mal-CoA 6.10352e-7 M,843.583 ‰
same,Fnorm,"Mal-CoA 6.10352e-7 M, Replicates 1-3 (ED Fig. 10a)",840.469 ‰ and 846.42 ‰ and 843.86 ‰
same,Fraction bound transformed,Mal-CoA 1.2207e-6 M,0.2149
same,Mean Fnorm,Mal-CoA 1.2207e-6 M,838.273 ‰
same,Fnorm,"Mal-CoA 1.2207e-6 M, Replicates 1-3 (ED Fig. 10a)",837.823 ‰ and 838.78 ‰ and 838.217 ‰
same,Fraction bound transformed,Mal-CoA 2.44141e-6 M,0.1801
same,Mean Fnorm,Mal-CoA 2.44141e-6 M,838.682 ‰
same,Fnorm,"Mal-CoA 2.44141e-6 M, Replicates 1-3 (ED Fig. 10a)",839.959 ‰ and 836.5 ‰ and 839.586 ‰
same,Fraction bound transformed,Mal-CoA 4.88281e-6 M,0.2862
same,Mean Fnorm,Mal-CoA 4.88281e-6 M,837.436 ‰
same,Fnorm,"Mal-CoA 4.88281e-6 M, Replicates 1-3 (ED Fig. 10a)",839.798 ‰ and 836.387 ‰ and 836.122 ‰
same,Fraction bound transformed,Mal-CoA 9.76563e-6 M,0.3923
same,Mean Fnorm,Mal-CoA 9.76563e-6 M,836.19 ‰
same,Fnorm,"Mal-CoA 9.76563e-6 M, Replicates 1-3 (ED Fig. 10a)",834.741 ‰ and 836.18 ‰ and 837.648 ‰
same,Fraction bound transformed,Mal-CoA 1.95313e-5 M,0.495
same,Mean Fnorm,Mal-CoA 1.95313e-5 M,834.984 ‰
same,Fnorm,"Mal-CoA 1.95313e-5 M, Replicates 1-3 (ED Fig. 10a)",835.416 ‰ and 833.302 ‰ and 836.235 ‰
same,Fraction bound transformed,Mal-CoA 3.90625e-5 M,0.697
same,Mean Fnorm,Mal-CoA 3.90625e-5 M,832.611 ‰
same,Fnorm,"Mal-CoA 3.90625e-5 M, Replicates 1-3 (ED Fig. 10a)",833.941 ‰ and 832.342 ‰ and 831.55 ‰
same,Fraction bound transformed,Mal-CoA 7.8125e-5 M,0.721
same,Mean Fnorm,Mal-CoA 7.8125e-5 M,832.33 ‰
same,Fnorm,"Mal-CoA 7.8125e-5 M, Replicates 2-3 (ED Fig. 10a)",830.576 ‰ and 834.083 ‰
same,Fraction bound transformed,Mal-CoA 0.00015625 M,0.6458
same,Mean Fnorm,Mal-CoA 0.00015625 M,833.212 ‰
same,Fnorm,"Mal-CoA 0.00015625 M, Replicates 1-3 (ED Fig. 10a)",833.177 ‰ and 832.509 ‰ and 833.951 ‰
same,Fraction bound transformed,Mal-CoA 0.0003125 M,0.8154
same,Mean Fnorm,Mal-CoA 0.0003125 M,831.221 ‰
same,Fnorm,"Mal-CoA 0.0003125 M, Replicates 1-3 (ED Fig. 10a)",828.879 ‰ and 833.898 ‰ and 830.884 ‰
same,Fraction bound transformed,Mal-CoA 0.00125 M,0.8761
same,Mean Fnorm,Mal-CoA 0.00125 M,830.508 ‰
same,Fnorm,"Mal-CoA 0.00125 M, Replicates 1-3 (ED Fig. 10a)",830.373 ‰ and 829.245 ‰ and 831.906 ‰
same,Fraction bound transformed,Mal-CoA 0.0025 M,1.1671
same,Mean Fnorm,Mal-CoA 0.0025 M,827.09 ‰
same,Fnorm,"Mal-CoA 0.0025 M, Replicates 1-3 (ED Fig. 10a)",828.614 ‰ and 826.728 ‰ and 825.93 ‰
same,Fraction bound transformed,Mal-CoA 0.005 M,1.112
same,Mean Fnorm,Mal-CoA 0.005 M,827.742 ‰
same,Fnorm,"Mal-CoA 0.005 M, Replicates 1-3 (ED Fig. 10a)",831.215 ‰ and 831.366 ‰ and 820.645 ‰
same,Fraction bound transformed,Mal-CoA […],1.135
same,Mean Fnorm,Mal-CoA […],827.462 ‰
same,Kd,"purified yeast TORC1 (GFP–Tor1) 7.5 nM, 30 °C, mean ± s.d., n = 3, read-out: Kd (binding of Mal-CoA to TORC1, MST)",19.3 µM
